In ChEMBL document CHEMBL4390701, “Discovery of 5-(5-fluoro-1H-pyrrolo[2,3-b]pyridin-3-yl)pyrazin-2(1H)-one derivatives as new potent PB2 inhibitors” (Bioorg Med Chem Lett, 2019):

Key:
[1] = Binding affinity to influenza virus PB2 transformed into Escherichia coli rosseta competent cells by surface plasmon resonance analysis; design: species or system unidentified influenza virus
[2] = Binding affinity to influenza virus PB2 transformed into Escherichia coli rosseta competent cells by isothermal titration calorimetry; design: species or system unidentified influenza virus
[3] = tested on: unidentified influenza virus; experiment: Binding affinity to influenza virus PB2 transformed into Escherichia coli rosseta competent cells assessed as binding constant by isothermal titration calorimetry
[4] = Cytotoxicity against MDCK cells assessed as reduction in cell viability measured after 72 hrs by alamar blue assay; format: cell-based, Canis lupus familiaris; settings: dog
[5] = tested on: Influenza A virus; experiment: Antiviral activity against Influenza A virus (A/PR/8/34 (H1N1)) infected in MDCK cells assessed as reduction in viral replication preincubated for 1 hr followed by compound washout and measured after 48 hrs; format: functional, organism-based, A/Puerto Rico/8/1934(H1N1)
[6] = Influenza A virus, A/Puerto Rico/8/1934(H1N1), MDCK

## Cn1cc(-c2c[nH]c3ncc(F)cc23)nc(NC[C@H]2CCCO2)c1=O
[1]
  Kd: 8.27 µM

## CCOc1ccc(-n2cc(-c3c[nH]c4ncc(F)cc34)nc(N[C@H]3C4CCC(CC4)[C@@H]3C(=O)O)c2=O)cc1
[1]
  Kd: 6.23 µM

## CCn1cc(-c2c[nH]c3ncc(F)cc23)nc(N[C@H]2C3CCC(CC3)[C@@H]2C(=O)O)c1=O
[2]
  Kd: 0.19 µM
[3]
  K: 5.19 ×10⁶ /M
[4]
  CC50 at 72 h: > 100 µM
[5]; [6]
  EC50: 1.02 µM
[1]
  Kd: 0.11 µM

## O=C(O)[C@H]1C2CCC(CC2)[C@@H]1Nc1nc(-c2c[nH]c3ncc(F)cc23)cn(Cc2cccs2)c1=O
[1]
  Kd: 1.04 µM

## O=C(O)[C@H]1C2CCC(CC2)[C@@H]1Nc1nc(-c2c[nH]c3ncc(F)cc23)cn(-c2ccc(F)c(F)c2)c1=O
[1]
  Kd: 5.33 µM

## Cn1cc(-c2c[nH]c3ncc(F)cc23)nc(NCCCN2CCOCC2)c1=O
[1]
  Kd: > 50 µM

## Cn1cc(-c2c[nH]c3ncc(F)cc23)nc(NCCc2cccs2)c1=O
[1]
  Kd: > 50 µM

## O=C(O)[C@H]1C2CCC(CC2)[C@@H]1Nc1nc(-c2c[nH]c3ncc(F)cc23)ncc1F [PIMODIVIR]
[2]
  Kd: 0.05 µM
[4]
  CC50 at 72 h: > 100 µM
[5]; [6]
  EC50: 0.002 µM
[1]
  Kd: 0.07 µM

## O=C(O)[C@H]1C2CCC(CC2)[C@@H]1Nc1nc(-c2c[nH]c3ncc(F)cc23)cn(C2CCCCC2)c1=O
[1]
  Kd: 0.74 µM

## CC(C)(C)C1CCC(n2cc(-c3c[nH]c4ncc(F)cc34)nc(N[C@H]3C4CCC(CC4)[C@@H]3C(=O)O)c2=O)CC1 (stereo not given in full)
[1]
  Kd: 16.3 µM

## O=C(O)[C@H]1C2CCC(CC2)[C@@H]1Nc1nc(-c2c[nH]c3ncc(F)cc23)cn(-c2ccccc2)c1=O
[1]
  Kd: 1 µM

## Cn1cc(-c2c[nH]c3ncc(F)cc23)nc(N[C@H]2C3CCC(CC3)[C@@H]2C(=O)O)c1=O
[1]
  Kd: 0.27 µM

## CC(C1CC1)n1cc(-c2c[nH]c3ncc(F)cc23)nc(N[C@H]2C3CCC(CC3)[C@@H]2C(=O)O)c1=O (stereo not given in full)
[1]
  Kd: 0.53 µM

## Cn1cc(-c2c[nH]c3ncc(F)cc23)nc(N[C@@H](Cc2ccccc2)C(N)=O)c1=O
[1]
  Kd: 22.3 µM

## NC(=O)c1ncn([C@@H]2O[C@H](CO)[C@@H](O)[C@H]2O)n1 [RIBAVIRIN]
[4]
  CC50 at 72 h: > 100 µM
[5]
  EC50: 9.12 µM

## CCCn1cc(-c2c[nH]c3ncc(F)cc23)nc(N[C@H]2C3CCC(CC3)[C@@H]2C(=O)O)c1=O
[1]
  Kd: 0.32 µM

## O=C(O)[C@H]1C2CCC(CC2)[C@@H]1Nc1nc(-c2c[nH]c3ncc(F)cc23)cn(C2CC2)c1=O
[1]
  Kd: 0.32 µM

## O=C(O)[C@H]1C2CCC(CC2)[C@@H]1Nc1nc(-c2c[nH]c3ncc(F)cc23)cn(CC(F)F)c1=O
[1]
  Kd: 0.16 µM

## O=C(O)[C@H]1C2CCC(CC2)[C@@H]1Nc1nc(-c2c[nH]c3ncc(F)cc23)cn(C2CCCC2)c1=O
[1]
  Kd: 0.49 µM

## O=C(O)[C@H]1C2CCC(CC2)[C@@H]1Nc1nc(-c2c[nH]c3ncc(F)cc23)cn(Cc2cccc(C(F)(F)F)c2)c1=O
[1]
  Kd: 2.13 µM

## COc1ccc(-n2cc(-c3c[nH]c4ncc(F)cc34)nc(N[C@H]3C4CCC(CC4)[C@@H]3C(=O)O)c2=O)cc1
[1]
  Kd: 3.93 µM

## Cn1cc(-c2c[nH]c3ncc(F)cc23)nc(NC[C@@H]2CCCO2)c1=O
[1]
  Kd: 10.2 µM

## O=C(O)[C@H]1C2CCC(CC2)[C@@H]1Nc1nc(-c2c[nH]c3ncc(F)cc23)cn(C2CCC2)c1=O
[1]
  Kd: 0.47 µM

## O=C(O)[C@H]1C2CCC(CC2)[C@@H]1Nc1nc(-c2c[nH]c3ncc(F)cc23)cn(CC(F)(F)F)c1=O
[1]
  Kd: 0.17 µM

## CC[C@H](Nc1nc(-c2c[nH]c3ncc(F)cc23)cn(C)c1=O)c1ccccc1
[1]
  Kd: 10.3 µM

## CC1CCCCC1Nc1nc(-c2c[nH]c3ncc(F)cc23)cn(C)c1=O (stereo not given)
[1]
  Kd: 5.23 µM

## O=C(O)Cn1cc(-c2c[nH]c3ncc(F)cc23)nc(N[C@H]2C3CCC(CC3)[C@@H]2C(=O)O)c1=O
[1]
  Kd: 0.5 µM

## C[C@H](Nc1nc(-c2c[nH]c3ncc(F)cc23)cn(C)c1=O)c1cccc(F)c1
[1]
  Kd: 25.7 µM

## Cn1cc(-c2c[nH]c3ncc(F)cc23)nc(NC23CC4CC(CC(O)(C4)C2)C3)c1=O
[1]
  Kd: 2.05 µM

## Cc1cc(C)cc(-n2cc(-c3c[nH]c4ncc(F)cc34)nc(N[C@H]3C4CCC(CC4)[C@@H]3C(=O)O)c2=O)c1
[1]
  Kd: 4.9 µM

## CC(C)C(CC(=O)O)Nc1nc(-c2c[nH]c3ncc(F)cc23)cn(C)c1=O (stereo not given)
[1]
  Kd: 3.47 µM

## O=C(O)[C@H]1C2CCC(CC2)[C@@H]1Nc1nc(-c2c[nH]c3ncc(F)cc23)cn(-c2ccc(C(F)(F)F)cc2)c1=O
[1]
  Kd: 7.15 µM
